According to patent publication US20260027068A1, “METHODS OF ADM[…]-KETAMINE” (Perception Neuroscience, Inc., priority 2022, published 2026):

Experiments:
subjects with TRD = test: Modified Observer's Assessment of Alertness/Sedation (MOAA/S)
Description: The Investigational Medicinal Product (IMP) R(−)-ketamine hydrochloride in sterile water for intravenous injection was investigated as an […] treatment of TRD. The International Union of Pure and Applied Chemistry (IUPAC) name is of the IMP is (2R)-2-(2-chlorophenyl)-2-(methylamino)cyclohexan-1-one. Subjects received the solution at either 30 mg or 60 mg dose, or a placebo. The IMP or placebo was administered on Day 1 as a single IV infusion via an electronic infusion pump over 40 minutes. The duration of study participation for each subject was up to 29 days including a screening period, a 3-day in-clinic visit, and 2 follow-up visits. 101 subjects were enrolled in approximately 20 study centers in the EU and the US.
The MOAA/S will were to determine if R(−)-ketamine causes the side effect of sedation and to what degree. Sedation was evaluated by the study staff using the MOAA/S. The observer recorded the subject's alertness pre-dose, every 20 minutes for first 2 hours post-dose, and at 4 and 6 hours after the start of the infusion.

CYP2B6 = conditions: in vitro
healthy volunteers = conditions: up to 1 mg/kg IV or 1.8 mg/kg intramuscular; cited from earlier work
[1] = 30 mg, 10 min post start of infusion, n 10
[2] = 30 mg, 20 min post start of infusion, n 33
[3] = 30 mg, 30 min post start of infusion, n 10
[4] = 30 mg, 40 min post start of infusion, n 33
[5] = 30 mg, 50 min post start of infusion, n 10
[6] = 30 mg, 1 hour 10 min post start of infusion, n 10
[7] = 30 mg, 1 hour 20 min post start of infusion, n 33
[8] = 30 mg, 1 hour 30 min post start of infusion, n 10
[9] = 30 mg, 1 hour 40 min post start of infusion, n 33
[10] = 30 mg, 1 hour 50 min post start of infusion, n 10
[11] = 30 mg, 1 hour post start of infusion, n 33
[12] = 30 mg, to 10 min post-start, n 10
[13] = 30 mg, to 20 min post-start, n 33
[14] = 30 mg, to 30 min post-start, n 10
[15] = 30 mg, to 40 min post-start, n 33
[16] = 30 mg, to 50 min post-start, n 10
[17] = 30 mg, to 1 hour 10 min post-start, n 10
[18] = 30 mg, to 1 hour 20 min post-start, n 33
[19] = 30 mg, to 1 hour 30 min post-start, n 10
[20] = 30 mg, to 1 hour 40 min post-start, n 33
[21] = 30 mg, to 1 hour 50 min post-start, n 10
[22] = 30 mg, to 1 hour post-start, n 33
[23] = 60 mg, 10 min post start of infusion, n 11
[24] = 60 mg, 20 min post start of infusion, n 35
[25] = 60 mg, 30 min post start of infusion, n 11
[26] = 60 mg, 40 min post start of infusion, n 35
[27] = 60 mg, 50 min post start of infusion, n 11
[28] = 60 mg, 1 hour 10 min post start of infusion, n 11
[29] = 60 mg, 1 hour 20 min post start of infusion, n 34
[30] = 60 mg, 1 hour 30 min post start of infusion, n 11
[31] = 60 mg, 1 hour 40 min post start of infusion, n 35
[32] = 60 mg, 1 hour 50 min post start of infusion, n 11
[33] = 60 mg, 1 hour post start of infusion, n 35
[34] = 60 mg, to 10 min post-start, n 11
[35] = 60 mg, to 20 min post-start, n 35
[36] = 60 mg, to 30 min post-start, n 11
[37] = 60 mg, to 40 min post-start, n 35
[38] = 60 mg, to 50 min post-start, n 11
[39] = 60 mg, to 1 hour 10 min post-start, n 11
[40] = 60 mg, to 1 hour 20 min post-start, n 34
[41] = 60 mg, to 1 hour 30 min post-start, n 11
[42] = 60 mg, to 1 hour 40 min post-start, n 35
[43] = 60 mg, to 1 hour 50 min post-start, n 11
[44] = 60 mg, to 1 hour post-start, n 35

CN[C@@]1(c2ccccc2Cl)CCCCC1=O [PCN 101]
MOAA/S score, Mean (subjects with TRD; [1]): 5.0
MOAA/S score, Median (subjects with TRD; [1]): 5.0
MOAA/S score, Mean (subjects with TRD; [2]): 4.9
MOAA/S score, Median (subjects with TRD; [2]): 5.0
MOAA/S score, Mean (subjects with TRD; [3]): 4.9
MOAA/S score, Median (subjects with TRD; [3]): 5.0
MOAA/S score, Mean (subjects with TRD; [4]): 4.8
MOAA/S score, Median (subjects with TRD; [4]): 5.0
MOAA/S score, Mean (subjects with TRD; [5]): 4.9
MOAA/S score, Median (subjects with TRD; [5]): 5.0
MOAA/S score, Mean (subjects with TRD; [6]): 5.0
MOAA/S score, Median (subjects with TRD; [6]): 5.0
MOAA/S score, Mean (subjects with TRD; [7]): 4.8
MOAA/S score, Median (subjects with TRD; [7]): 5.0
MOAA/S score, Mean (subjects with TRD; [8]): 5.0
MOAA/S score, Median (subjects with TRD; [8]): 5.0
MOAA/S score, Mean (subjects with TRD; [9]): 4.9
MOAA/S score, Median (subjects with TRD; [9]): 5.0
MOAA/S score, Mean (subjects with TRD; [10]): 5.0
MOAA/S score, Median (subjects with TRD; [10]): 5.0
MOAA/S score, Mean (subjects with TRD; [11]): 4.8
MOAA/S score, Median (subjects with TRD; [11]): 5.0
MOAA/S score, Mean (subjects with TRD; 30 mg, 2 hours, n 33): 5.0
MOAA/S score, Median (subjects with TRD; 30 mg, 2 hours, n 33): 5.0
MOAA/S score, Mean (subjects with TRD; 30 mg, 4 hours, n 31): 5.0
MOAA/S score, Median (subjects with TRD; 30 mg, 4 hours, n 31): 5.0
MOAA/S score, Mean (subjects with TRD; 30 mg, 6 hours, n 31): 5.0
MOAA/S score, Median (subjects with TRD; 30 mg, 6 hours, n 31): 5.0
MOAA/S change from baseline, Mean (subjects with TRD; [12]): 0.0
MOAA/S change from baseline, Median (subjects with TRD; [12]): 0.0
MOAA/S change from baseline, Mean (subjects with TRD; [13]): −0.1
MOAA/S change from baseline, Median (subjects with TRD; [13]): 0.0
MOAA/S change from baseline, Mean (subjects with TRD; [14]): −0.1
MOAA/S change from baseline, Median (subjects with TRD; [14]): 0.0
MOAA/S change from baseline, Mean (subjects with TRD; [15]): −0.2
MOAA/S change from baseline, Median (subjects with TRD; [15]): 0.0
MOAA/S change from baseline, Mean (subjects with TRD; [16]): −0.1
MOAA/S change from baseline, Median (subjects with TRD; [16]): 0.0
MOAA/S change from baseline, Mean (subjects with TRD; [17]): 0.0
MOAA/S change from baseline, Median (subjects with TRD; [17]): 0.0
MOAA/S change from baseline, Mean (subjects with TRD; [18]): −0.2
MOAA/S change from baseline, Median (subjects with TRD; [18]): 0.0
MOAA/S change from baseline, Mean (subjects with TRD; [19]): 0.0
MOAA/S change from baseline, Median (subjects with TRD; [19]): 0.0
MOAA/S change from baseline, Mean (subjects with TRD; [20]): −0.1
MOAA/S change from baseline, Median (subjects with TRD; [20]): 0.0
MOAA/S change from baseline, Mean (subjects with TRD; [21]): 0.0
MOAA/S change from baseline, Median (subjects with TRD; [21]): 0.0
MOAA/S change from baseline, Mean (subjects with TRD; [22]): −0.2
MOAA/S change from baseline, Median (subjects with TRD; [22]): 0.0
MOAA/S change from baseline, Mean (subjects with TRD; 30 mg, to 2 hours, n 33): −0.0
MOAA/S change from baseline, Median (subjects with TRD; 30 mg, to 2 hours, n 33): 0.0
MOAA/S change from baseline, Mean (subjects with TRD; 30 mg, to 4 hours, n 31): 0.0
MOAA/S change from baseline, Median (subjects with TRD; 30 mg, to 4 hours, n 31): 0.0
MOAA/S change from baseline, Mean (subjects with TRD; 30 mg, to 6 hours, n 31): 0.0
MOAA/S change from baseline, Median (subjects with TRD; 30 mg, to 6 hours, n 31): 0.0
MOAA/S score, Mean (subjects with TRD; [23]): 4.9
MOAA/S score, Median (subjects with TRD; [23]): 5.0
MOAA/S score, Mean (subjects with TRD; [24]): 4.8
MOAA/S score, Median (subjects with TRD; [24]): 5.0
MOAA/S score, Mean (subjects with TRD; [25]): 4.9
MOAA/S score, Median (subjects with TRD; [25]): 5.0
MOAA/S score, Mean (subjects with TRD; [26]): 4.8
MOAA/S score, Median (subjects with TRD; [26]): 5.0
MOAA/S score, Mean (subjects with TRD; [27]): 4.9
MOAA/S score, Median (subjects with TRD; [27]): 5.0
MOAA/S score, Mean (subjects with TRD; [28]): 5.0
MOAA/S score, Median (subjects with TRD; [28]): 5.0
MOAA/S score, Mean (subjects with TRD; [29]): 4.8
MOAA/S score, Median (subjects with TRD; [29]): 5.0
MOAA/S score, Mean (subjects with TRD; [30]): 5.0
MOAA/S score, Median (subjects with TRD; [30]): 5.0
MOAA/S score, Mean (subjects with TRD; [31]): 4.8
MOAA/S score, Median (subjects with TRD; [31]): 5.0
MOAA/S score, Mean (subjects with TRD; [32]): 5.0
MOAA/S score, Median (subjects with TRD; [32]): 5.0
MOAA/S score, Mean (subjects with TRD; [33]): 4.8
MOAA/S score, Median (subjects with TRD; [33]): 5.0
MOAA/S score, Mean (subjects with TRD; 60 mg, 2 hours, n 35): 4.8
MOAA/S score, Median (subjects with TRD; 60 mg, 2 hours, n 35): 5.0
MOAA/S score, Mean (subjects with TRD; 60 mg, 4 hours, n 32): 4.9
MOAA/S score, Median (subjects with TRD; 60 mg, 4 hours, n 32): 5.0
MOAA/S score, Mean (subjects with TRD; 60 mg, 6 hours, n 32): 5.0
MOAA/S score, Median (subjects with TRD; 60 mg, 6 hours, n 32): 5.0
MOAA/S change from baseline, Mean (subjects with TRD; [34]): −0.1
MOAA/S change from baseline, Median (subjects with TRD; [34]): 0.0
MOAA/S change from baseline, Mean (subjects with TRD; [35]): −0.2
MOAA/S change from baseline, Median (subjects with TRD; [35]): 0.0
MOAA/S change from baseline, Mean (subjects with TRD; [36]): −0.1
MOAA/S change from baseline, Median (subjects with TRD; [36]): 0.0
MOAA/S change from baseline, Mean (subjects with TRD; [37]): −0.2
MOAA/S change from baseline, Median (subjects with TRD; [37]): 0.0
MOAA/S change from baseline, Mean (subjects with TRD; [38]): −0.1
MOAA/S change from baseline, Median (subjects with TRD; [38]): 0.0
MOAA/S change from baseline, Mean (subjects with TRD; [39]): 0.0
MOAA/S change from baseline, Median (subjects with TRD; [39]): 0.0
MOAA/S change from baseline, Mean (subjects with TRD; [40]): −0.2
MOAA/S change from baseline, Median (subjects with TRD; [40]): 0.0
MOAA/S change from baseline, Mean (subjects with TRD; [41]): 0.0
MOAA/S change from baseline, Median (subjects with TRD; [41]): 0.0
MOAA/S change from baseline, Mean (subjects with TRD; [42]): −0.2
MOAA/S change from baseline, Median (subjects with TRD; [42]): 0.0
MOAA/S change from baseline, Mean (subjects with TRD; [43]): 0.0
MOAA/S change from baseline, Median (subjects with TRD; [43]): 0.0
MOAA/S change from baseline, Mean (subjects with TRD; [44]): −0.2
MOAA/S change from baseline, Median (subjects with TRD; [44]): 0.0
MOAA/S change from baseline, Mean (subjects with TRD; 60 mg, to 2 hours, n 35): −0.2
MOAA/S change from baseline, Median (subjects with TRD; 60 mg, to 2 hours, n 35): 0.0
MOAA/S change from baseline, Mean (subjects with TRD; 60 mg, to 4 hours, n 32): −0.1
MOAA/S change from baseline, Median (subjects with TRD; 60 mg, to 4 hours, n 32): 0.0
MOAA/S change from baseline, Mean (subjects with TRD; 60 mg, to 6 hours, n 32): 0.0
MOAA/S change from baseline, Median (subjects with TRD; 60 mg, to 6 hours, n 32): 0.0

CN[C@@]1(c2ccccc2Cl)CCCCC1=O.Cl [R(−)-ketamine, (2R)-2-(2-chlorophenyl)-2-(methylamino)cyclohexan-1-one]
Subjects with post-baseline MOASS <5, number (subjects with TRD; 30 mg (n = 33)): 9 n
Subjects with post-baseline MOASS <5, percent (subjects with TRD; 30 mg (n = 33)): (27.3) %
Subjects with post-baseline MOASS <5, number (subjects with TRD; 60 mg (n = 35)): 12 n
Subjects with post-baseline MOASS <5, percent (subjects with TRD; 60 mg (n = 35)): (34.3) %
CYP2B6 induction (CYP2B6): inducer
Psychotomimetic and dissociative-like effects compared with S(+)-ketamine (healthy volunteers): less pronounced psychotomimetic and dissociative-like effects
